Values quoted from earlier work as cited in patent US12419890B2, “Administration of sumo-activating enzyme inhibitor and checkpoint inhibitors” (Takeda Pharmaceutical Company Limited, priority 2019, dated 2025).
Like-named read-outs stand apart in the source and are kept apart here.

What was measured:
[1] = system: advanced cervical cancer, PD-L1 CPS>=1; conditions: cited from earlier work
MSI-H CRC = MSI-H CRC patients that progressed to fluoropyrimidine, oxaliplatin, and irinotecan containing regimens; cited from earlier work
advanced NSCLC = conditions: cited from earlier work
metastatic CRC = conditions: stated jointly for both drugs; cited from earlier work
[2] = system: recurrent or metastatic cervical cancer; conditions: cited from earlier work
[3] = 200 mg IV every three weeks, 77 patients

pembrolizumab
complete responses (CRs) [1, 3]: 2.6%
partial responses (PRs) [1, 3]: 11.7%
overall response rate (ORR) ([1]; 200 mg IV every three weeks, 77 patients, median follow-up 11.7 months, 95% CI 7.4, 24.1): 14.3%
estimated median duration of response (DOR) ([1]; 11 patients with a response by independent review): not reached
responders with a DOR of greater than or equal to 6 months ([1]; 11 patients with a response): 91%
ORR (MSI-H CRC): 36%
responders whose DOR lasted more than six months (MSI-H CRC): 78%
5-year OS rate (advanced NSCLC; previously treated patients, PD-L1 expression 1 to 49%): 12.6%
5-year OS rate (advanced NSCLC; previously treated patients, PD-L1 expression <1%): 3.5%
5-year OS rate (advanced NSCLC; previously treated patients, PD-L1 expression >=50%): 25%
5-year OS rate (advanced NSCLC; treatment-naive patients with PD-L1 expression >=50%): 29.6%
5-year OS rate (advanced NSCLC; treatment-naive patients, PD-L1 <50%): 15.7%

CNC(=O)c1cc(Oc2ccc(NC(=O)Nc3ccc(Cl)c(C(F)(F)F)c3)c(F)c2)ccn1 [regorafenib]
median OS (metastatic CRC): 7 months
median PFS (metastatic CRC): 2 months

trifluridine-tipiracil
median OS (metastatic CRC): 7 months
median PFS (metastatic CRC): 2 months

nivolumab
ORR (MSI-H CRC): 28%
responders whose DOR lasted more than six months (MSI-H CRC): 67%

bevacizumab
HR for PFS ([2]; bevacizumab added to standard first line chemotherapy vs chemotherapy alone, 95% CI 0.54-0.82): 0.67
HR for OS ([2]; bevacizumab added to standard first line chemotherapy vs chemotherapy alone, 95% CI 0.54-0.95): 0.71
median PFS ([2]; bevacizumab added to standard first line chemotherapy, vs 5.9 months chemotherapy alone): 8.2 months
median OS ([2]; bevacizumab added to standard first line chemotherapy, vs 13.3 months chemotherapy alone): 17.0 months
